From ChEMBL document CHEMBL5154815, “A Series of Substituted Bis-Aminotriazines Are Activators of the Natriuretic Peptide Receptor C” (J Med Chem, 2022)
Calls of active or inactive are those of the source. The rule behind the calls is not given here.

Experiments:
[1] = molecular target: T1, Atrial natriuretic peptide receptor 3 (Rattus norvegicus, UniProt P41740); test: Agonist activity at NPRC in rat small mesenteric arteries assessed as vasorelaxation by Organ bath assay; format: tissue-based, Artery
T1 sequence (P41740 whole entry): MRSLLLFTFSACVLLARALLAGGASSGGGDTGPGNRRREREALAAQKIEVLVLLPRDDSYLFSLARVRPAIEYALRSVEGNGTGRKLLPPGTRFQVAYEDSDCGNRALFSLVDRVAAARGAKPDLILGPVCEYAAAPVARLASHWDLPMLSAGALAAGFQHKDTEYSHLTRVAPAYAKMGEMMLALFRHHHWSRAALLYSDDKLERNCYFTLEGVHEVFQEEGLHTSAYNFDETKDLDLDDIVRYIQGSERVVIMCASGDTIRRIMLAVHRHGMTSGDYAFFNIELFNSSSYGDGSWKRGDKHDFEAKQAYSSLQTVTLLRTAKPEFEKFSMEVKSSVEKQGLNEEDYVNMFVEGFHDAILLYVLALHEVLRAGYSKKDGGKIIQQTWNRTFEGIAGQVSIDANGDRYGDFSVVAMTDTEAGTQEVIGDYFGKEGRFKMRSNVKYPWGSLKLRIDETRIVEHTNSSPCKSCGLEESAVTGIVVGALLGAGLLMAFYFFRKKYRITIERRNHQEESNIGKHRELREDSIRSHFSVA

[2] = molecular target: T1, Atrial natriuretic peptide receptor 3; test: Agonist activity at NPRC in rat aorta assessed as vasorelaxation by Organ bath assay; format: tissue-based
[3] = molecular target: T2, Atrial natriuretic peptide receptor 3 (Mus musculus, UniProt P70180); test: Agonist activity at NPRC in knock out mouse mesenteric arteries assessed as vasorelaxation by Organ bath assay; format: tissue-based, Artery
T2 sequence (P70180 whole entry): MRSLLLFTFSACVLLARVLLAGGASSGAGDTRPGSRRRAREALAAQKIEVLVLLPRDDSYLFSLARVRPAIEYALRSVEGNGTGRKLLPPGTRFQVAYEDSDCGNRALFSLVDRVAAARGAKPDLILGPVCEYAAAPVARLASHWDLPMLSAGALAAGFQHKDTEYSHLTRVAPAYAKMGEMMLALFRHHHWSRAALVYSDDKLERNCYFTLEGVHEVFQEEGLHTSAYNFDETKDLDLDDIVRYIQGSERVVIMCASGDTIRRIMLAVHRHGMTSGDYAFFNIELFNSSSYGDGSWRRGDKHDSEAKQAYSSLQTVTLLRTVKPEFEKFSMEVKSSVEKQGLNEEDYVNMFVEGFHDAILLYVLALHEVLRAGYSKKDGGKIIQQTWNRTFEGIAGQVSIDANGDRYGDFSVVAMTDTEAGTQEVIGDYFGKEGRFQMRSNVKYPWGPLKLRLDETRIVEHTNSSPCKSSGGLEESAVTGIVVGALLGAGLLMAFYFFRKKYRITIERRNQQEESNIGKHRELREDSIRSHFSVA

[4] = molecular target: Cytochrome P450 2C19 (Homo sapiens, UniProt P33261); test: Inhibition of CYP2C19 in human liver microsomes using S-mephenytoin as substrate preincubated for 10 mins followed by NADPH addition and measured after 20 mins by LC/MS/MS analysis
[5] = AUC (0 to infinity) in fasted C57BL/6 mouse at 3 mg/kg, iv by LC-MS/MS analysis; format: ADME, organism-based; design: time infinity, dose 3 mg/kg, route iv; conditions: in vivo
[6] = molecular target: T3, Atrial natriuretic peptide receptor 3 (Rattus norvegicus) (UniProt P41740); test: Agonist activity at NPRC in rat aorta assessed as inhibition of cANF4-23 induced vasorelaxation in presence of osteocrin by Organ bath assay; format: tissue-based; conditions: filed as agonist
T3 sequence (whole entry): T1 sequence (P41740 whole entry)

[7] = molecular target: T4, Atrial natriuretic peptide receptor 3 (Homo sapiens) (UniProt P17342); test: Agonist activity at NPRC in human Hela cells assessed as decrease in forskolin-induced cAMP level at 100 uM relative to control; format: cell-based; design: scale not given: the % may be the effect or the level left
T4 sequence (whole entry): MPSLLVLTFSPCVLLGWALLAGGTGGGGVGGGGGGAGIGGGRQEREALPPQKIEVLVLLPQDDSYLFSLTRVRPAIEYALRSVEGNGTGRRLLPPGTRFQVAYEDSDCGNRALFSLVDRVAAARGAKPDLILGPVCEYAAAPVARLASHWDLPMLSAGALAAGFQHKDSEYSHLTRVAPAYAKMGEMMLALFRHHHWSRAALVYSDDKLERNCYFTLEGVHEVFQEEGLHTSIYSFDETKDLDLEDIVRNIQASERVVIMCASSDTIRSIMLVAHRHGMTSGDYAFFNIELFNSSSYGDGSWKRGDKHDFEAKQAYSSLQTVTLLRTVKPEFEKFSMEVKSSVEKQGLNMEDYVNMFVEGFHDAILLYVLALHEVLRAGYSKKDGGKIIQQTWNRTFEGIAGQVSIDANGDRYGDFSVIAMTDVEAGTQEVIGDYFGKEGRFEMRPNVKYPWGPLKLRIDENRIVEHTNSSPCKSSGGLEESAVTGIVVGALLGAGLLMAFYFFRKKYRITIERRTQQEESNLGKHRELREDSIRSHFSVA

Sequence of Cytochrome P450 2C19 (P33261 whole entry): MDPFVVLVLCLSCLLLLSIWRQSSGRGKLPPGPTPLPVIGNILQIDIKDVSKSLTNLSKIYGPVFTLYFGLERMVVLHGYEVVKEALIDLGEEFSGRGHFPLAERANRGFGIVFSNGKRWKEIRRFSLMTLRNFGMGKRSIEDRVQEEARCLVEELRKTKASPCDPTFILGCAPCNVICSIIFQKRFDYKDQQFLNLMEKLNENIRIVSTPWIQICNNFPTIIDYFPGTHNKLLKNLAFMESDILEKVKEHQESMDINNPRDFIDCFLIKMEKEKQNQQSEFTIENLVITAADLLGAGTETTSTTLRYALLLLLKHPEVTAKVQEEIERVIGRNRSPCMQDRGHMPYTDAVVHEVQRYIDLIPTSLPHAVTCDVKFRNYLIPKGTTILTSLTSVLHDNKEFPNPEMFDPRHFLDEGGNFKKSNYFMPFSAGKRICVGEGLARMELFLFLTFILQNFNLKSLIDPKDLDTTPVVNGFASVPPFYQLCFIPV

CC(=O)Nc1ccc(Nc2ncnc(NCCC(=O)OC(C)(C)C)n2)cc1
EC50 [1]: 0.86 µM | EC50 [2]: 15.5 µM | EC50 [3]: 10.1 µM | IC50 [4]: > 50 µM | AUC(0-inf) [5]: 448 ng·h/mL | Activity [6]: Active | Activity [7]: 37.7%
